According to US20050256302A1, “Novel peptides having camp producing activity” (Japan Science and Technology Agency, priority 2002, published 2005):
Where a SMILES comes first, the peptide text is derived from it. Bridges are numbered along the chain shown (N, C = ends).

Assays:
[1] = molecular target: T1, Pig calcitonin receptor (CTR) (Sus scrofa, UniProt P25117); assay: cAMP production in COS-7 cells expressing pig calcitonin receptor; type: cell-based
T1 construct: expressed in transfected cells; host or cells: COS-7 (given as rhesus monkey renal cells), vector pcDNA 3.1
T1 sequence (P25117 30-498): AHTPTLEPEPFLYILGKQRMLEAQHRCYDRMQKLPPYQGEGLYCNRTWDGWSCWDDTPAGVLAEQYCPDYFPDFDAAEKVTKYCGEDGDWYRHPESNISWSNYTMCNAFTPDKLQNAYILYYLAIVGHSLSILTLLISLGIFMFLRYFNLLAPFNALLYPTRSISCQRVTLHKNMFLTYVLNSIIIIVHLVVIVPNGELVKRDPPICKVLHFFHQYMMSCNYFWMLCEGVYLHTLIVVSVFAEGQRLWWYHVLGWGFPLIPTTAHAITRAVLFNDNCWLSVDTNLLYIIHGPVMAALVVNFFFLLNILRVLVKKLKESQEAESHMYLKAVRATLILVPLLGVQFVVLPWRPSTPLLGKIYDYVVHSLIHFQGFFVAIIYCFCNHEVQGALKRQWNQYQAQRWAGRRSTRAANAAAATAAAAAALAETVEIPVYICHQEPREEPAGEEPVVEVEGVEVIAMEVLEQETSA
Protocol: Pig calcitonin receptor (CTR) was introduced into a mammalian expression vector pcDNA 3.1, expressed in rhesus monkey renal cells (COS-7) and production amount of cAMP by stimulation of CRSP was measured by radioimmunoassay. Similarly, CTR was expressed in opossum renal cells (OK cells) and production amount of cAMP by stimulation of CRSP was measured by radioimmunoassay while incorporation of sodium ion was measured by measuring the incorporation of sodium chloride having radioactivity (^22Na) by a gamma-counter.
Pig calcitonin receptor (CTR) was introduced into mammalian expression vector pcDNA 3.1 and then expressed in rhesus monkey renal cells (COS-7) whereupon production amount of cAMP by CRSP stimulation was measured by radioimmunoassay.
Pig calcitonin receptor (CTR) was introduced into a mammalian expression vector pcDNA 3.1 and expressed in rhesus monkey renal cells (COS-7) and production amount of cAMP by CRSP stimulation was measured by radioimmunoassay.
Pig calcitonin receptor (CTR) was introduced into a mammalian expression vector pcDNA 3.1, then expressed in rhesus monkey renal cells (COS-7) and production amount of cAMP by CRSP or CRSP-Gly stimulation was measured-by radioimmunoassay.

[2] = tested on: amyloride-sensitive Na/H co-transporter on LLC-PK1 cells; assay: Incorporation of sodium ion (22Na) in LLC-PK1 cells, with or without EIPA; type: cell-based, pig; conditions: 10 minutes
Protocol: A culture solution of LLC-PK1 cells was substituted with a Hanks' choline chloride solution, CRSP and sodium chloride having a predetermined radioactivity (^22Na) were added thereto so as to make the final concentration 0 M, 10^−8 M, 10^−7 M and 10^−6 M each, the cells were washed after 10 minutes so that ^22Na contained in the solution outside the cells was completely removed and radioactivity incorporated into the cells was measured by a gamma-counter. Similarly, a culture solution of LLC-PK1 cells was substituted with a Hanks' choline chloride solution, sodium chloride having a predetermined radioactivity (^22Na) as well as CRSP and an amyloride derivative (5-(N-ethyl-N-isopropyl)-amiloride) (EIPA) which is an Na/H co-transporter inhibitor were added thereto so as to make the final concentration 0 M CRSP+0 M EIPA, 10^−6 M CRSP+0 M EIPA, 10^−6 M CRSP+10^−8 M EIPA, 10^−6 M CRSP+10^−7 M EIPA, 10^−6 M CRSP+10^−6 M EIPA and 0 M CRSP+10^−6 M EIPA each. Cells were washed after 10 minutes so that ^22Na contained in the outer solution of the cells was completely removed and radioactivity incorporated into the cells was measured by a gamma-counter.
The results are shown in FIG. 5 (incorporation of sodium ion in the absence of EIPA), FIG. 6 (incorporation of sodium ion in the presence of EIPA) and FIG. 7 (incorporation of calcium ion). […]

LLC-PK1 cells = assay: Incorporation of calcium ion (45Ca) in LLC-PK1 cells; type: cell-based, pig; conditions: 10 minutes
Protocol: The results are shown in FIG. 5 (incorporation of sodium ion in the absence of EIPA), FIG. 6 (incorporation of sodium ion in the presence of EIPA) and FIG. 7 (incorporation of calcium ion).
Incorporation of calcium ion was conducted as follows. Thus, LLC-PK1 cells were washed with a Hanks' solution (calcium-free Hanks' solution) where concentration of calcium chloride was lowered to 0 mM. Calcium chloride (^45Ca) was added to a calcium-free Hanks' solution on the cells together with CRSP, the cells were washed after 10 minutes to completely wash out ^45Ca contained in the solution outside the cells and radioactivity incorporated into the cells was measured by a liquid scintillation counter.

[3] = Calcium concentration in plasma of anesthetized rats; type: in vivo; conditions: rat, 16 nmol/kg from jugular vein
Protocol: (§1) CRSP corresponding to an amount of 16 nmol/kg dissolved in a physiological saline solution was administered at a time within a short period from jugular vein of rat under an anesthetized condition and calcium concentration in the plasma and blood pressure were measured. The results are shown in FIG. 13 (changes in calcium concentration in blood by administration of CRSP) and FIG. 14 (changes in blood pressure by administration of CRSP).
(§2) CRSP corresponding to the amount of 16 nmol/kg dissolved in a physiological saline solution was administered at a time within short period from […] of rat under an anesthetized condition.

[4] = Blood pressure of anesthetized rats; type: in vivo; conditions: rat, 16 nmol/kg from jugular vein
Protocol: as §1, §2

CSCC[C@H](NC(=O)[C@H](CCCCN)NC(=O)[C@@H](NC(=O)[C@@H]1CCCN1C(=O)[C@H](CC(C)C)NC(=O)[C@H](CC(C)C)NC(=O)[C@H](CC(N)=O)NC(=O)[C@H](CO)NC(=O)[C@H](CCCNC(=N)N)NC(=O)[C@@H](NC(=O)[C@H](CCSC)NC(=O)[C@H](CO)NC(=O)CNC(=O)[C@H](CO)NC(=O)[C@H](CCCNC(=N)N)NC(=O)[C@H](CO)NC(=O)[C@H](CC(C)C)NC(=O)[C@H](CC(C)C)NC(=O)CNC(=O)[C@@H](NC(=O)[C@H](CC(C)C)NC(=O)[C@H](CCCNC(=N)N)NC(=O)[C@H](Cc1c[nH]cn1)NC(=O)[C@@H](NC(=O)[C@H](CCSC)NC(=O)[C@@H]1CSSC[C@H](NC(=O)[C@@H](N)CO)C(=O)N[C@@H](CC(N)=O)C(=O)N[C@@H]([C@@H](C)O)C(=O)N[C@@H](C)C(=O)N[C@@H]([C@@H](C)O)C(=O)N1)[C@@H](C)O)C(C)C)C(C)C)[C@@H](C)O)C(=O)NCC(=O)N[C@@H](Cc1ccccc1)C(=O)N[C@@H](CCCCN)C(=O)N[C@H](C(=O)N[C@@H](Cc1ccccc1)C(=O)NCC(N)=O)C(C)C [CRSP] (H-SCNTATCMTHRLVGLLSRSGSMVRSNLLPTKMGFKVFG-NH2; disulfide 2-7)
cAMP productivity, CRSP compared with CRSP-Gly ([1]; CTR expressed in COS-7): nearly the same cAMP productivity | activity stronger than pig calcitonin ([1]; CTR expressed in COS-7, ratio of ED50): about 350 fold | EC50 ([1]; CTR expressed in COS-7, read-out: ED50, increase of intracellular adenylyl cyclase activity (cAMP production)): ~0.2 nM | incorporation of sodium into cells ([2]; 10^-8 to 10^-6 M): promoted | amyloride-sensitive Na/H co-transporter [2]: activated | incorporation of calcium into cells (LLC-PK1 cells): suppressed | calcium concentration in plasma [3]: transiently lowered | blood pressure [4]: no apparent change
